Laboratory results: publication PMC2736342 (Biochemistry, 2009)
Like-named read-outs stand apart in the source and are kept apart here. Values belong to the molecule of their own block, whether it stands above or below them. Ends that are not written are not given here. Peptide text beside a SMILES is read from it. * marks the point of attachment. Biotin = O=C1N[C@H]2[C@H](CS[C@H]2CCCCC(=O)*)N1

Assays:
[1] = biological target: D328R Gαi GDP (Rattus norvegicus, UniProt P10824, D328R/INS119HHHHHH); assay: SPR binding to immobilized peptide, D328R GDP; conditions: pH 7.4
[2] = biological target: I56C/Q333C Gαi GDP (Rattus norvegicus, UniProt P10824, I56C/INS119HHHHHH/Q333C); assay: SPR binding to immobilized peptide, I56C/Q333C GDP; conditions: pH 7.4
[3] = biological target: WT Gαi GDP (Rattus norvegicus, UniProt P10824, INS119HHHHHH); assay: SPR binding to immobilized peptide, wild-type GDP; conditions: pH 7.4
[4] = biological target: D328R Gαi GDP•AlF4^− (Rattus norvegicus, UniProt P10824, D328R/INS119HHHHHH); assay: SPR binding to immobilized peptide, D328R GDP-AlF4^−; conditions: pH 7.4
[5] = biological target: WT Gαi GDP •AlF4^− (Rattus norvegicus, UniProt P10824, INS119HHHHHH); assay: SPR binding to immobilized peptide, wild-type GDP-AlF4^−; conditions: pH 7.4
[6] = biological target: I56C/Q333C Gαi GDP•AlF4^− (Rattus norvegicus, UniProt P10824, I56C/INS119HHHHHH/Q333C); assay: SPR binding to immobilized peptide, I56C/Q333C GDP-AlF4^−; conditions: pH 7.4
[7] = biological target: T1, wild-type Gαi1 subunit (rat, UniProt P10824 2-354); assay: SPR
[8] = biological target: T2, D328R Gαi1 subunit (rat, UniProt P10824 2-354, D328R); assay: SPR
[9] = biological target: T1, wild-type Gαi1 subunit; assay: SPR; remark: listed apart in the source
[10] = biological target: T2, D328R Gαi1 subunit; assay: SPR; remark: listed apart in the source

Molecule: Biotin-SRVTWYDFLMEDTKSR [peptide KB-752]
Kd [7]: 2840 ± 810 nM | Kd [8]: 1280 ± 20 nM

Molecule: Biotin-SSRGYYHGIWVGEEGRLSR [peptide KB-1753]
Kd [9]: 1100 ± 100 nM | Kd [10]: 260 ± 40 nM

More lines, now with the values ahead:

koff [1]: 0.01 ± 0.001 s⁻¹ | kon [1]: 8560 M⁻¹ s⁻¹ | koff [2]: 0.22 ± 0.03 s⁻¹ | kon [2]: 7750 M⁻¹ s⁻¹ | koff [3]: 0.06 ± 0.01 s⁻¹ | kon [3]: 21100 M⁻¹ s⁻¹
Molecule: CSCC[C@H](NC(=O)[C@H](CC(C)C)NC(=O)[C@H](Cc1ccccc1)NC(=O)[C@H](CC(=O)O)NC(=O)[C@H](Cc1ccc(O)cc1)NC(=O)[C@H](Cc1c[nH]c2ccccc12)NC(=O)[C@@H](NC(=O)[C@@H](NC(=O)[C@H](CCCNC(=N)N)NC(=O)[C@@H](N)CO)C(C)C)[C@@H](C)O)C(=O)N[C@@H](CCC(=O)O)C(=O)N[C@@H](CC(=O)O)C(=O)N[C@H](C(=O)N[C@@H](CCCCN)C(=O)N[C@@H](CO)C(=O)N[C@@H](CCCNC(=N)N)C(=O)O)[C@@H](C)O [KB-752] (H-SRVTWYDFLMEDTKSR-OH)

koff [4]: 0.003 ± 0.0004 s⁻¹ | kon [4]: 8810 M⁻¹ s⁻¹ | koff [5]: 0.025 ± 0.001 s⁻¹ | kon [5]: 22900 M⁻¹ s⁻¹ | koff [6]: 0.006 ± 0.0008 s⁻¹ | kon [6]: 16800 M⁻¹ s⁻¹
Molecule: CC[C@H](C)[C@H](NC(=O)CNC(=O)[C@H](Cc1c[nH]cn1)NC(=O)[C@H](Cc1ccc(O)cc1)NC(=O)[C@H](Cc1ccc(O)cc1)NC(=O)CNC(=O)[C@H](CCCNC(=N)N)NC(=O)[C@H](CO)NC(=O)[C@@H](N)CO)C(=O)N[C@@H](Cc1c[nH]c2ccccc12)C(=O)N[C@H](C(=O)NCC(=O)N[C@@H](CCC(=O)O)C(=O)N[C@@H](CCC(=O)O)C(=O)NCC(=O)N[C@@H](CCCNC(=N)N)C(=O)N[C@@H](CC(C)C)C(=O)N[C@@H](CO)C(=O)N[C@@H](CCCNC(=N)N)C(=O)O)C(C)C [KB-1753] (H-SSRGYYHGIWVGEEGRLSR-OH)
